# Test results taken from publication PMC10175918 (Communications Biology, 2023).
# Like-named read-outs stand apart in the source and are kept apart here.
# Assays:
# Test in all cases: cell-based
# Design in all cases: species or system HEK293A; AP-TGFα shedding assay, transfected GPCR plus chimeric Gα mixture, AP release as % of TPA response
# Conditions in all cases: HEK293-A
# [1] = molecular target: T1, secretin receptor (Homo sapiens, UniProt P47872)
# T1 construct: gene SCTR
# [2] = molecular target: T2, 5-hydroxytryptamine receptor 1F (Homo sapiens, UniProt P30939)
# T2 construct: gene HTR1F
# T2 sequence (P30939 1-366): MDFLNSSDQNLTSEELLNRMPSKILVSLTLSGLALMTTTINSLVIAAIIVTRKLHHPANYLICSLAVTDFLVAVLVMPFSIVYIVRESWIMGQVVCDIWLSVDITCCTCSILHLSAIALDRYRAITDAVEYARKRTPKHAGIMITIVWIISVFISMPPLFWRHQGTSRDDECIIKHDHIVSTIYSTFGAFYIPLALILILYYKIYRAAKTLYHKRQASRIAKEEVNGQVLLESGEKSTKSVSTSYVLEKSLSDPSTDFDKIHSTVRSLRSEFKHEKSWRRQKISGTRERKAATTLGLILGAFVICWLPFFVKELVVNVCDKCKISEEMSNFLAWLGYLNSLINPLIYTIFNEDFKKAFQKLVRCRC
# [3] = molecular target: T3, relaxin/insulin-like family peptide receptor 2 (Homo sapiens, UniProt Q8WXD0)
# T3 construct: gene RXFP2
# T3 sequence (Q8WXD0 whole entry): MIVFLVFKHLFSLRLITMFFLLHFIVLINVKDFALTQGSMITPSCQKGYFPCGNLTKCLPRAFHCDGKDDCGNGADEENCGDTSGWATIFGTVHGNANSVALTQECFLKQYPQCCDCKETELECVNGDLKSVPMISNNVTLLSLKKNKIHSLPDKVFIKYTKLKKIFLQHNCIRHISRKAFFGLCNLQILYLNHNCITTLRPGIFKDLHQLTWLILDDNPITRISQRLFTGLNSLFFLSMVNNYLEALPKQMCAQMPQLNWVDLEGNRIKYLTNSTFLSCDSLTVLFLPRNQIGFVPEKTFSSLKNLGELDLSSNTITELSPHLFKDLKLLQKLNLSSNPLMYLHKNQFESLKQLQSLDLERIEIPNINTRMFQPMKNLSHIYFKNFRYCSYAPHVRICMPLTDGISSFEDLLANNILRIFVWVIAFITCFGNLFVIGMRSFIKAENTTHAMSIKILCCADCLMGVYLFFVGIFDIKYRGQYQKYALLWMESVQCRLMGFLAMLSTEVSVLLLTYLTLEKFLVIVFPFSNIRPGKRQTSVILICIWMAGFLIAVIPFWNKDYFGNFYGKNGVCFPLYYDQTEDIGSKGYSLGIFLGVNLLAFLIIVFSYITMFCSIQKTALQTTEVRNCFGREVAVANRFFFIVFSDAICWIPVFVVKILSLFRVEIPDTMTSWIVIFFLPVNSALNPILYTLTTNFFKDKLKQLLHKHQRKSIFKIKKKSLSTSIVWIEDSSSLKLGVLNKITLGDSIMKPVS
# [4] = molecular target: T4, leukotriene B4 receptor 2 (Homo sapiens, UniProt Q9NPC1)
# T4 construct: gene LTB4R2
# T4 sequence (Q9NPC1 1-358): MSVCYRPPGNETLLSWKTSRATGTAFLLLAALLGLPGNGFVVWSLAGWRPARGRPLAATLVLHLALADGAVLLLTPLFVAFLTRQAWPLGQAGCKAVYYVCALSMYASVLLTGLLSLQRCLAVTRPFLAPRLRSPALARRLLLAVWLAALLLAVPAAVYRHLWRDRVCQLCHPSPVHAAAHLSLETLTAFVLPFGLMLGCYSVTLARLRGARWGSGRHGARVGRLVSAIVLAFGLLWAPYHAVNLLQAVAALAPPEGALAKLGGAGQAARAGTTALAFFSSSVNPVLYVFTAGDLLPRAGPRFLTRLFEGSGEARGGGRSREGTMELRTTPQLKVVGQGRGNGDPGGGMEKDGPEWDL
# [5] = molecular target: T5, chemokine (C-X3-C motif) receptor 1 (Homo sapiens, UniProt P49238)
# T5 construct: gene CX3CR1
# T5 sequence (P49238 1-355): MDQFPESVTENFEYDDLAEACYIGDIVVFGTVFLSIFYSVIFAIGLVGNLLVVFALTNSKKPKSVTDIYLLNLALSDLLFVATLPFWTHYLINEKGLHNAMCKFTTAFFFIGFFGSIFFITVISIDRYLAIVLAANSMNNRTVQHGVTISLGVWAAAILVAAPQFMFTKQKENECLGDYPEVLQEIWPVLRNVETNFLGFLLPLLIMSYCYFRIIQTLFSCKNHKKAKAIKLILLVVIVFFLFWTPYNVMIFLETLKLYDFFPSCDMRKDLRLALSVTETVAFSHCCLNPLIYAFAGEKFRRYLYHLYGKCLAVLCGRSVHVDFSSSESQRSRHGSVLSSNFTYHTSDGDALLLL
# [6] = molecular target: T6, C-C motif chemokine receptor 7 (Homo sapiens, UniProt P32248)
# T6 construct: gene CCR7
# T6 sequence (P32248 1-378): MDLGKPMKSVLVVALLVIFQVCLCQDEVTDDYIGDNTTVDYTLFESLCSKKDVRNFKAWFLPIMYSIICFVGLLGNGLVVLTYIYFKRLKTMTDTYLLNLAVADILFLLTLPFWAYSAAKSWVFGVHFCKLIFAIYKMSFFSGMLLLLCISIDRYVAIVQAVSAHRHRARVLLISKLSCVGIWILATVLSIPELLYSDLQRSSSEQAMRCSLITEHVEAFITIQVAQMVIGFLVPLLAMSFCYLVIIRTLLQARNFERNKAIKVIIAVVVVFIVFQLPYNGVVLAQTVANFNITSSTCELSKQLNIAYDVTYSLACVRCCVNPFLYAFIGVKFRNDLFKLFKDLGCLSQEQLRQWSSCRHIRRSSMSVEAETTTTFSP
# [7] = molecular target: T7, prostaglandin E receptor 3 iso6 (Homo sapiens, UniProt P43115)
# T7 construct: gene PTGER3; iso6
# T7 sequence (P43115 1-390): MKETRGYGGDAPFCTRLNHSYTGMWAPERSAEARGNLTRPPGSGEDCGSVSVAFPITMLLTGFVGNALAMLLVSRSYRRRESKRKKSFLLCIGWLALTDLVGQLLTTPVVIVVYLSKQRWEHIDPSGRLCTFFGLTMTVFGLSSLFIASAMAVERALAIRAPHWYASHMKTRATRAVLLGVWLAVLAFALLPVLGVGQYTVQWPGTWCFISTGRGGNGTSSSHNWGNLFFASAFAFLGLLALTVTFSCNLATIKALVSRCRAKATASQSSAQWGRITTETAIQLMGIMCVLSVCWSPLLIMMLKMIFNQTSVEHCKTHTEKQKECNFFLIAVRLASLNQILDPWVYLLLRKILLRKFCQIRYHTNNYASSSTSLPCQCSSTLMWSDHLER
# [8] = molecular target: T8, neurotensin receptor type 2 (Homo sapiens, UniProt O95665)
# T8 construct: gene NTSR2
# T8 sequence (O95665 whole entry): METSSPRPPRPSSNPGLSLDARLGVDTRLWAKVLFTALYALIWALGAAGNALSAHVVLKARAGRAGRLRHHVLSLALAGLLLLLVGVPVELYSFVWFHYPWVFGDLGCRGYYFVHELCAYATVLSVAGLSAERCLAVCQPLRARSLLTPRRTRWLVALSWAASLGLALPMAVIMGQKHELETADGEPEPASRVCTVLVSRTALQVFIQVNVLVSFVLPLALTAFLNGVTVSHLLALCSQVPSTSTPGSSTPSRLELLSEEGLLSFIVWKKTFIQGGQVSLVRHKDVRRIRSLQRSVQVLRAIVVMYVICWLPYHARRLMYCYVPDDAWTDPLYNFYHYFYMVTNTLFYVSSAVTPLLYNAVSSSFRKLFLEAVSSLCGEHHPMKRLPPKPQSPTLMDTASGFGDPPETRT
# [9] = molecular target: T9, G protein-coupled receptor 183 (Epstein-Barr Virus Induced Gene 2) (Homo sapiens, UniProt P32249)
# T9 construct: gene GPR183
# T9 sequence (P32249 whole entry): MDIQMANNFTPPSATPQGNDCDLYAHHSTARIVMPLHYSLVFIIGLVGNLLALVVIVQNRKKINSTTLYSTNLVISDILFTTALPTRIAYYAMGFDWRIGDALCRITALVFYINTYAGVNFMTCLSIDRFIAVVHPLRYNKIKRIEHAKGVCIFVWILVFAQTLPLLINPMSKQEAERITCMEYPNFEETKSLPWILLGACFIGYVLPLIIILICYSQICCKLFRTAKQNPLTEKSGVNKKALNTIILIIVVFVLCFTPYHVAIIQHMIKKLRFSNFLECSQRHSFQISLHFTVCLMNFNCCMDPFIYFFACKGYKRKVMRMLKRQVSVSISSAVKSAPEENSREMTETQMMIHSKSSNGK
# [10] = read-out: % GPCR activation of 10μM Sofosbuvir compared to TPA
# [11] = read-out: % GPCR activation of 10µM Molnupiravir compared to TPA
# [12] = read-out: % GPCR activation of 100μM Favipiravir compared to TPA
# [13] = read-out: % GPCR activation of 10μM GS441524 compared to TPA
# [14] = read-out: % GPCR activation of 10µM Remdesivir compared to TPA
# T1 sequence (P47872 whole entry): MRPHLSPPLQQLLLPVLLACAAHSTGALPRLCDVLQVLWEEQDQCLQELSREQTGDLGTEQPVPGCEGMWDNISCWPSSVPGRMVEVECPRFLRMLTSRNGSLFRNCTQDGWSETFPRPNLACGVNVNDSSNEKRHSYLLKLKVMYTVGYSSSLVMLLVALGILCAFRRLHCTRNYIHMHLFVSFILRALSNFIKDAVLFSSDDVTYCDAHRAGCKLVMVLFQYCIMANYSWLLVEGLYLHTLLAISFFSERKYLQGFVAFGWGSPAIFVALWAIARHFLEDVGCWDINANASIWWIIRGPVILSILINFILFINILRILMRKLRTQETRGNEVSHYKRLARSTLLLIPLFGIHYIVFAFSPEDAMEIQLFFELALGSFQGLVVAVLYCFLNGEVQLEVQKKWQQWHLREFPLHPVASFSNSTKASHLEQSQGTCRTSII
compound,measurement,setting,value
CC(C)OC(=O)[C@H](C)N[P@](=O)(OC[C@H]1O[C@@H](n2ccc(=O)[nH]c2=O)[C@](C)(F)[C@@H]1O)Oc1ccccc1 [sofosbuvir],activity at 10 µM,[1]; [10],0.153%
same,activity at 10 µM,[2]; [10],-0.816%
same,activity at 10 µM,[3]; [10],-1.51%
same,activity at 10 µM,[4]; [10],1.86%
same,activity at 10 µM,[5]; [10],0.247%
same,activity at 10 µM,[6]; [10],-0.917%
same,activity at 10 µM,[7]; [10],-2.67%
same,activity at 10 µM,[8]; [10],0.255%
same,activity at 10 µM,[9]; [10],-0.758%
CC(C)C(=O)OC[C@H]1O[C@@H](n2ccc(NO)nc2=O)[C@H](O)[C@@H]1O [molnupiravir],activity at 10 µM,[1]; [11],-0.0837%
same,activity at 10 µM,[2]; [11],0.719%
same,activity at 10 µM,[3]; [11],-1.68%
same,activity at 10 µM,[4]; [11],-0.206%
same,activity at 10 µM,[5]; [11],-0.579%
same,activity at 10 µM,[6]; [11],0.546%
same,activity at 10 µM,[7]; [11],-0.792%
same,activity at 10 µM,[8]; [11],0.128%
same,activity at 10 µM,[9]; [11],-0.842%
"NC(=O)c1nc(F)cnc1O [favipiravir, 6-fluoro-3-hydroxy-2-pyrazinecarboxamide]",activity at 100 µM,[1]; [12],-0.513%
same,activity at 100 µM,[2]; [12],1.63%
same,activity at 100 µM,[3]; [12],-0.673%
same,activity at 100 µM,[4]; [12],-0.0275%
same,activity at 100 µM,[5]; [12],0.0634%
same,activity at 100 µM,[6]; [12],-0.335%
same,activity at 100 µM,[7]; [12],0.28%
same,activity at 100 µM,[8]; [12],-3.41%
same,activity at 100 µM,[9]; [12],-1.16%
N#C[C@@]1(c2ccc3c(N)ncnn23)O[C@H](CO)[C@@H](O)[C@H]1O [GS441524],activity at 10 µM,[1]; [13],0.894%
same,activity at 10 µM,[2]; [13],0.356%
same,activity at 10 µM,[3]; [13],-1.3%
same,activity at 10 µM,[4]; [13],-0.182%
same,activity at 10 µM,[5]; [13],-0.521%
same,activity at 10 µM,[6]; [13],-0.998%
same,activity at 10 µM,[7]; [13],-0.459%
same,activity at 10 µM,[8]; [13],1.01%
same,activity at 10 µM,[9]; [13],-1.47%
CCC(CC)COC(=O)[C@H](C)N[P@](=O)(OC[C@H]1O[C@@](C#N)(c2ccc3c(N)ncnn23)[C@H](O)[C@@H]1O)Oc1ccccc1 [remdesivir],activity at 10 µM,[1]; [14],-0.951%
same,activity at 10 µM,[2]; [14],-2.15%
same,activity at 10 µM,[3]; [14],0.369%
same,activity at 10 µM,[4]; [14],-0.974%
same,activity at 10 µM,[5]; [14],2.08%
same,activity at 10 µM,[7]; [14],1.47%
same,activity at 10 µM,[8]; [14],-1.86%
same,activity at 10 µM,[9]; [14],0.482%
